Results reported in patent US20050239656A1, “Pyridine compounds or salts thereof and herbicides containing the same” (priority 2002, published 2005).

Assays:
barnyardgrass [1] = assay: Test Example 3: paddy pot test, application under submerged conditions; format: in vivo, Echinochloa crus-galli L.; details: active ingredient 250 g/ha; submerged application at 0.5 leaf stage; visually observed 14 days after application; 0 = non-treated, 100 = complete kill
Method in brief: (§1)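 After sowing seeds and planting wapato tubers in flooded paddy soil, an aqueous dilution of the formulated compound was added to the 3–4 cm flood water at early leaf stage. Percent growth control relative to the untreated plot was assessed visually on day 14.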

barnyardgrass [2] = assay: Test Example 2: soil surface treatment, upland pot test; format: in vivo, Echinochloa crus-galli L.; details: active ingredient 500 g/ha, observed 20th to 28th day
Method in brief: (§2)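 Seeds were sown in upland field soil in 1/170,000 ha pots. One day later, a wettable powder or emulsifiable concentrate at a predetermined active-ingredient rate, diluted in water at 1,500 L/ha, was sprayed onto the soil surface. Growth control (%) was scored visually 20–28 days after application (0 = untreated, 100 = complete kill).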

redroot pigweed [3] = assay: as above; format: in vivo, Amaranthus retroflexus L.; details: active ingredient 500 g/ha, observed 20th to 28th day
Method in brief: as §2

corn [4] = assay: as above; format: in vivo, Zea mays L.; details: active ingredient 500 g/ha, observed 20th to 28th day
Method in brief: as §2

prickly sida [5] = assay: as above; format: in vivo, Sida spinosa L.; details: active ingredient 500 g/ha, observed 20th to 28th day
Method in brief: as §2

soybean [6] = assay: as above; format: in vivo, Glycine max Merr.; details: active ingredient 500 g/ha, observed 20th to 28th day
Method in brief: as §2

green foxtail [7] = assay: Test Example 1: foliage treatment, upland pot test; format: in vivo, Setaria viridis L.; details: active ingredient 500 g/ha, observed 18th to 23rd day, 0 = non-treated, 100 = complete kill
crabgrass [8] = assay: Test Example 2: soil surface treatment, upland pot test; format: in vivo, Digitaria sanguinalis L.; details: active ingredient 500 g/ha, observed 20th to 28th day
Method in brief: as §2

prickly sida [9] = assay: Test Example 1: foliage treatment, upland pot test; format: in vivo, Sida spinosa L.; details: active ingredient 500 g/ha, observed 18th to 23rd day, 0 = non-treated, 100 = complete kill
rice (var. Nihonbare) = assay: Test Example 3: paddy pot test, transplanted rice; format: in vivo, Oryza sativa L.; details: active ingredient 250 g/ha, applied 4th day after transplantation, visually observed 21st day after application, 0 = non-treated, 100 = complete kill
Method in brief: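 Rice (2-leaf stage) was transplanted 3 cm deep into puddled, leveled paddy soil under 3–4 cm flooding. On day 4 after transplanting, diluted wettable powder or emulsifiable concentrate was pipetted onto the water at a predetermined active-ingredient dose. Growth control (0 = untreated, 100 = complete kill) was scored visually 21 days later.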

rice [10] = assay: Test Example 1: foliage treatment, upland pot test; format: in vivo, Oryza sativa L.; details: crop, active ingredient 500 g/ha, observed 18th to 23rd day, 0 = non-treated, 100 = complete kill
Method in brief: (§3)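 Each plant species was sprayed once on its foliage, with wheat at 1.3–2.4, soybean at 0.1–0.4, barnyardgrass at 1.3–2.8 and rice at 1.2–2.6 leaves. Visual ratings of growth inhibition, 0 to 100%, followed 18–23 days later.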

velvetleaf [11] = assay: Test Example 1: foliage treatment, upland pot test; format: in vivo, Abutilon theophrasti MEDIC.; details: active ingredient 500 g/ha, observed 18th to 23rd day, 0 = non-treated, 100 = complete kill
soybean [12] = assay: Test Example 1: foliage treatment, upland pot test; format: in vivo, Glycine max Merr.; details: crop, active ingredient 500 g/ha, observed 18th to 23rd day, 0 = non-treated, 100 = complete kill
Method in brief: as §3

crabgrass [13] = assay: Test Example 1: foliage treatment, upland pot test; format: in vivo, Digitaria sanguinalis L.; details: active ingredient 500 g/ha, observed 18th to 23rd day, 0 = non-treated, 100 = complete kill
redroot pigweed [14] = assay: Test Example 1: foliage treatment, upland pot test; format: in vivo, Amaranthus retroflexus L.; details: active ingredient 500 g/ha, observed 18th to 23rd day, 0 = non-treated, 100 = complete kill
japanese bulrush = assay: Test Example 3: paddy pot test, application under submerged conditions; format: in vivo, Scirpus juncoides; details: active ingredient 250 g/ha; submerged application at 0.5 leaf stage; visually observed 14 days after application; 0 = non-treated, 100 = complete kill
Method in brief: as §1

corn [15] = assay: Test Example 1: foliage treatment, upland pot test; format: in vivo, Zea mays L.; details: crop, active ingredient 500 g/ha, observed 18th to 23rd day, 0 = non-treated, 100 = complete kill
Method in brief: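 In this upland pot foliage test, corn plants at 2.1 to 3.2 leaf stages were sprayed by a small size sprayer. The spray was a conventionally formulated wettable powder or emulsifiable concentrate weighed to a set active ingredient amount, diluted in water at 500 L/ha, plus 0.1% (v/v) agricultural spreader. Visual assessment on days 18 to 23 gave growth controlling degree (%), where 0 equals untreated and 100 means complete kill.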

barnyardgrass [16] = assay: Test Example 1: foliage treatment, upland pot test; format: in vivo, Echinochloa crus-galli L.; details: active ingredient 500 g/ha, observed 18th to 23rd day, 0 = non-treated, 100 = complete kill
Method in brief: as §3

japanese ribbon wapato = assay: Test Example 3: paddy pot test, application under submerged conditions; format: in vivo, Sagittaria pygniaea; details: active ingredient 250 g/ha; submerged application at primary leaf stage; visually observed 14 days after application; 0 = non-treated, 100 = complete kill
Method in brief: as §1

green foxtail [17] = assay: Test Example 2: soil surface treatment, upland pot test; format: in vivo, Setaria viridis L.; details: active ingredient 500 g/ha, observed 20th to 28th day
Method in brief: as §2

velvetleaf [18] = assay: as above; format: in vivo, Abutilon theophrasti MEDIC.; details: active ingredient 500 g/ha, observed 20th to 28th day
Method in brief: as §2

rice [19] = assay: as above; format: in vivo, Oryza sativa L.; details: active ingredient 500 g/ha, observed 20th to 28th day
Method in brief: as §2

CC(C)C(c1cnccc1C(F)(F)F)N(C)C(=O)Cc1cccc(C(F)(F)F)c1 (stereo not shown) [I-40]
Growth controlling degree (%) Barnyardgrass (barnyardgrass [1]): 100% | Growth controlling degree (%) Barnyardgrass (barnyardgrass [2]): 95% | Growth controlling degree (%) Redroot pigweed (redroot pigweed [3]): 90% | Growth controlling degree (%) Corn (corn [4]): 50% | Growth controlling degree (%) Prickly sida (prickly sida [5]): 100% | Growth controlling degree (%) Soyabean (soybean [6]): 30% | Growth controlling degree (%) Green foxtail (green foxtail [7]): 70% | Growth controlling degree (%) Crabgrass (crabgrass [8]): 100% | Growth controlling degree (%) Prickly sida (prickly sida [9]): 80% | Growth controlling degree (%) Rice (rice (var. Nihonbare)): 0% | Growth controlling degree (%) Rice (rice [10]): 50% | Growth controlling degree (%) Velvetleaf (velvetleaf [11]): 90% | Growth controlling degree (%) Soybean (soybean [12]): 60% | Growth controlling degree (%) Crabgrass (crabgrass [13]): 95% | Growth controlling degree (%) Redroot pigweed (redroot pigweed [14]): 80% | Growth controlling degree (%) Japanese bulrush (japanese bulrush): 50% | Growth controlling degree (%) Corn (corn [15]): 90% | Growth controlling degree (%) Barnyardgrass (barnyardgrass [16]): 40% | Growth controlling degree (%) Japanese ribbon wapato (japanese ribbon wapato): 50% | Growth controlling degree (%) Green foxtail (green foxtail [17]): 100% | Growth controlling degree (%) Velvetleaf (velvetleaf [18]): 70% | Growth controlling degree (%) Rice (rice [19]): 20%

CC(C)C(c1cnccc1C(F)(F)F)N(C)C(=O)Cc1ccc(F)c(F)c1 (stereo not shown) [I-60]
Growth controlling degree (%) Barnyardgrass (barnyardgrass [1]): 100% | Growth controlling degree (%) Barnyardgrass (barnyardgrass [2]): 98% | Growth controlling degree (%) Redroot pigweed (redroot pigweed [3]): 80% | Growth controlling degree (%) Corn (corn [4]): 10% | Growth controlling degree (%) Prickly sida (prickly sida [5]): 98% | Growth controlling degree (%) Soyabean (soybean [6]): 10% | Growth controlling degree (%) Green foxtail (green foxtail [7]): 70% | Growth controlling degree (%) Crabgrass (crabgrass [8]): 100% | Growth controlling degree (%) Prickly sida (prickly sida [9]): 70% | Growth controlling degree (%) Rice (rice (var. Nihonbare)): 30% | Growth controlling degree (%) Rice (rice [10]): 50% | Growth controlling degree (%) Velvetleaf (velvetleaf [11]): 90% | Growth controlling degree (%) Soybean (soybean [12]): 35% | Growth controlling degree (%) Crabgrass (crabgrass [13]): 80% | Growth controlling degree (%) Redroot pigweed (redroot pigweed [14]): 60% | Growth controlling degree (%) Japanese bulrush (japanese bulrush): 70% | Growth controlling degree (%) Corn (corn [15]): 70% | Growth controlling degree (%) Barnyardgrass (barnyardgrass [16]): 60% | Growth controlling degree (%) Japanese ribbon wapato (japanese ribbon wapato): 95% | Growth controlling degree (%) Green foxtail (green foxtail [17]): 98% | Growth controlling degree (%) Velvetleaf (velvetleaf [18]): 70% | Growth controlling degree (%) Rice (rice [19]): 20%

CC(C)C(c1cnccc1C(F)(F)F)N(C)C(=O)Cc1ccc(F)c(C(F)(F)F)c1 (stereo not shown) [I-61]
Growth controlling degree (%) Barnyardgrass (barnyardgrass [1]): 95% | Growth controlling degree (%) Barnyardgrass (barnyardgrass [2]): 20% | Growth controlling degree (%) Redroot pigweed (redroot pigweed [3]): 70% | Growth controlling degree (%) Corn (corn [4]): 10% | Growth controlling degree (%) Prickly sida (prickly sida [5]): 98% | Growth controlling degree (%) Soyabean (soybean [6]): 20% | Growth controlling degree (%) Green foxtail (green foxtail [7]): 90% | Growth controlling degree (%) Crabgrass (crabgrass [8]): 80% | Growth controlling degree (%) Prickly sida (prickly sida [9]): 80% | Growth controlling degree (%) Rice (rice (var. Nihonbare)): 10% | Growth controlling degree (%) Rice (rice [10]): 30% | Growth controlling degree (%) Velvetleaf (velvetleaf [11]): 80% | Growth controlling degree (%) Soybean (soybean [12]): 70% | Growth controlling degree (%) Crabgrass (crabgrass [13]): 80% | Growth controlling degree (%) Redroot pigweed (redroot pigweed [14]): 70% | Growth controlling degree (%) Japanese bulrush (japanese bulrush): 0% | Growth controlling degree (%) Corn (corn [15]): 30% | Growth controlling degree (%) Barnyardgrass (barnyardgrass [16]): 30% | Growth controlling degree (%) Japanese ribbon wapato (japanese ribbon wapato): 20% | Growth controlling degree (%) Green foxtail (green foxtail [17]): 70% | Growth controlling degree (%) Velvetleaf (velvetleaf [18]): 60% | Growth controlling degree (%) Rice (rice [19]): 10%

CC(C)C(c1cnccc1C(F)(F)F)N(C)C(=O)Cc1ccc(C(F)(F)F)c(F)c1 (stereo not shown) [I-62]
Growth controlling degree (%) Barnyardgrass (barnyardgrass [1]): 98% | Growth controlling degree (%) Barnyardgrass (barnyardgrass [2]): 60% | Growth controlling degree (%) Redroot pigweed (redroot pigweed [3]): 70% | Growth controlling degree (%) Corn (corn [4]): 10% | Growth controlling degree (%) Prickly sida (prickly sida [5]): 98% | Growth controlling degree (%) Soyabean (soybean [6]): 10% | Growth controlling degree (%) Green foxtail (green foxtail [7]): 40% | Growth controlling degree (%) Crabgrass (crabgrass [8]): 98% | Growth controlling degree (%) Prickly sida (prickly sida [9]): 70% | Growth controlling degree (%) Rice (rice (var. Nihonbare)): 20% | Growth controlling degree (%) Rice (rice [10]): 10% | Growth controlling degree (%) Velvetleaf (velvetleaf [11]): 90% | Growth controlling degree (%) Soybean (soybean [12]): 30% | Growth controlling degree (%) Crabgrass (crabgrass [13]): 60% | Growth controlling degree (%) Redroot pigweed (redroot pigweed [14]): 80% | Growth controlling degree (%) Japanese bulrush (japanese bulrush): 30% | Growth controlling degree (%) Corn (corn [15]): 10% | Growth controlling degree (%) Barnyardgrass (barnyardgrass [16]): 20% | Growth controlling degree (%) Japanese ribbon wapato (japanese ribbon wapato): 0% | Growth controlling degree (%) Green foxtail (green foxtail [17]): 60% | Growth controlling degree (%) Velvetleaf (velvetleaf [18]): 50% | Growth controlling degree (%) Rice (rice [19]): 10%
